The subject of series [1] is LinkCD. The experiment in a line: UV absorbance at […] nm of quenched aliquots, double-reciprocal plot. The series is classed as biochemical, Homo sapiens; Saccharomyces cerevisiae. Particulars: read-out: Enzyme kinetics (5-FC) / Km; PBS, 37 °C; CD active site.
The subject of series [2] is Nc1nc(=O)[nH]cc1F. Nature of the series: purified protein. Particulars: PBS, 37 °C, one experiment. The series is classed as biochemical, Saccharomyces cerevisiae.

`Nc1nc(=O)[nH]cc1F` [5-FC, 5-fluorocytosine]: the Km in series [1] is 330 ± 40 µM.

As for “CD (yeast cytosine deaminase) (Saccharomyces cerevisiae S288C)”, the Vmax in series [2] is 120000 µM/min/mg.

The Vmax is the top rate of the reaction or transport when substrate is in excess.

Values taken from paper PMC2706098 (Molecular pharmaceutics, 2009).
